Test results: article PMC12541554, “Production of the Antimicrobial Roseoflavin With Genetically Engineered Corynebacterium glutamicum” (Microbial Biotechnology, 2025)

Assays:
[1] = molecular target: T1, RibF^Cg (Corynebacterium glutamicum, UniProt Q8NP47); experiment: fluorescent ADP detection kinase assay, crude extract; type: biochemical; settings: ATP co-substrate; crude extract of overexpressing C. glutamicum; 10 min
T1 construct: gene Cgl1978; overexpressed from pVWEx1 in C. glutamicum wild type; crude extract
T1 sequence (Q8NP47 1-341): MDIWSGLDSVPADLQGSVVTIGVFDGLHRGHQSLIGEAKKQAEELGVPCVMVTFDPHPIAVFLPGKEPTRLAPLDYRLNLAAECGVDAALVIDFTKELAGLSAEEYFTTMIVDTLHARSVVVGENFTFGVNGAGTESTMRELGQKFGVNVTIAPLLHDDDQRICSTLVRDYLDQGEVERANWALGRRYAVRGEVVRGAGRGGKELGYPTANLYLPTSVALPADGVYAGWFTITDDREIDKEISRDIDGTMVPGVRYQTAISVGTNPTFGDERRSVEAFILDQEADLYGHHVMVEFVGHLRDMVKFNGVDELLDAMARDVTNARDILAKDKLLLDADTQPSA

[2] = molecular target: T2, RibF^Sda (Streptomyces davaonensis, UniProt K4R340); experiment: as above; type: biochemical; settings: ATP co-substrate; crude extract of overexpressing C. glutamicum with native RibF background; 10 min
T2 construct: gene ribC1; overexpressed from pVWEx1 in C. glutamicum wild type; crude extract (host's native RibF also present)
T2 sequence (K4R340 1-319): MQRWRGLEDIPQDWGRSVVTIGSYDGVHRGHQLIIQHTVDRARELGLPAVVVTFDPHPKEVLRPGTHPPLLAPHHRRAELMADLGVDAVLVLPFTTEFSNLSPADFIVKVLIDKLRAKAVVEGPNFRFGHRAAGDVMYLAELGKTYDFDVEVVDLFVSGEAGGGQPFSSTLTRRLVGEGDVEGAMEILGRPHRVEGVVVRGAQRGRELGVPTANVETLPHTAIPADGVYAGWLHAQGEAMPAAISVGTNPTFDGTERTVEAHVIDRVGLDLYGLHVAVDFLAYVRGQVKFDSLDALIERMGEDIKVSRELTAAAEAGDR

| SMILES | fluorescent ADP detection kinase assay, crude extract [1] | fluorescent ADP detection kinase assay, crude extract [2] |
| --- | --- | --- |
| Cc1cc2nc3c(=O)[nH]c(=O)nc-3n(C[C@H](O)[C@H](O)[C@H](O)CO)c2cc1N(C)C [roseoflavin] | overexpression of both ribF genes resulted in kinase activity when RF or RoF was added | activity of RibF^Sda was significantly lower in the presence of RoF |
| Cc1cc2nc3c(=O)[nH]c(=O)nc-3n(C[C@H](O)[C@H](O)[C@H](O)CO)c2cc1C [riboflavin] | overexpression of both ribF genes resulted in kinase activity when RF or RoF was added | RibF^Sda also showed lower kinase activity in the presence of RF |
